Read-outs that look alike come from different tables or passages of the source.
Key:
ALK = molecular target: T1, ALK (Homo sapiens, UniProt Q9UM73); test: ALK Kinase Assay (ELISA/TRF, PLC-γ substrate); type: biochemical; conditions: read-out: ALK Potency
T1 construct: host or cells: baculovirus expression system
In short: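 Time-resolved fluorescence ELISA using Eu-N1 PT66 antibody to detect phosphorylated PLC-γ (coated at 10 μg/mL). Enzyme at 30 ng/ml ALK; 15 min incubation, 37° C.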

JAK2 = molecular target: T2, JAK2 (Homo sapiens, UniProt O60674); test: Recombinant Human JAK2 Kinase Assay (TRF); type: biochemical; conditions: read-out: JAK2 Potency
T2 construct: host or cells: baculovirus expression system
T2 sequence (O60674 whole entry): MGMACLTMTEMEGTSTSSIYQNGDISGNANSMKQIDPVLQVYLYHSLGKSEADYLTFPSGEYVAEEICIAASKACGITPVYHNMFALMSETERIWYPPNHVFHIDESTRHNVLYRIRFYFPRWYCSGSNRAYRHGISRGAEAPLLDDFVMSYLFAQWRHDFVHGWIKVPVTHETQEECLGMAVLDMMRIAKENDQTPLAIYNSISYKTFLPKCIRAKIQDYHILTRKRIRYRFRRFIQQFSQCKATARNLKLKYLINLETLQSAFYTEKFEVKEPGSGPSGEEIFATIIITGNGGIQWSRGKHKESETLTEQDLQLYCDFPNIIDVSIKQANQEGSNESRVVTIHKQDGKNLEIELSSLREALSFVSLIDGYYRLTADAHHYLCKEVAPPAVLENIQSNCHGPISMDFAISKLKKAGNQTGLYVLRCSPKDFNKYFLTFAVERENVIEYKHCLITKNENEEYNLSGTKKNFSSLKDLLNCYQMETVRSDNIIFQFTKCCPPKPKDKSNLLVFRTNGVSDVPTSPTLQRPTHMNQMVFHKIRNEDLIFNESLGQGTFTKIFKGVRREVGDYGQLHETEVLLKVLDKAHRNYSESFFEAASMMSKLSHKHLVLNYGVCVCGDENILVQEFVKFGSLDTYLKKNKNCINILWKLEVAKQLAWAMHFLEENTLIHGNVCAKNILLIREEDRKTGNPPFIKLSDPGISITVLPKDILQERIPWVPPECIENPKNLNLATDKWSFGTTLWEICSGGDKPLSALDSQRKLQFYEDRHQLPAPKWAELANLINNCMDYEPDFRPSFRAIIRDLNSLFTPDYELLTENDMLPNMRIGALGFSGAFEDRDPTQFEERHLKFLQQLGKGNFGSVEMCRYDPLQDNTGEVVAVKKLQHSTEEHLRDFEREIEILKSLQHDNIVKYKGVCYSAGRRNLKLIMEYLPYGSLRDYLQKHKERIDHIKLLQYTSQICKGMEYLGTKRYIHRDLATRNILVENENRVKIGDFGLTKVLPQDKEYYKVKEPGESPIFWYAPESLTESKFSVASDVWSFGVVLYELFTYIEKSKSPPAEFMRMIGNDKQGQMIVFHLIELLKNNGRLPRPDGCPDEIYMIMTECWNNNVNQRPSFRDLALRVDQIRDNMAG
In short: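 Europium-labelled PY100 antibody reported tyrosine phosphorylation of a Neutravidin-captured biotinyl 15-mer peptide by JAK2 (baculovirus-expressed, 15 ng/ml). Conditions: 20 mM HEPES pH 7.2, 0.2 μM ATP, 1 mM MnCl2, 0.1% BSA, DMSO 2.5% final, 20 min at room temperature.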

[1] = ALK kinase inhibition, 1 μM ATP
[2] = JAK2 kinase inhibition, 0.2 μM ATP

T1 sequence (Q9UM73 19-1620): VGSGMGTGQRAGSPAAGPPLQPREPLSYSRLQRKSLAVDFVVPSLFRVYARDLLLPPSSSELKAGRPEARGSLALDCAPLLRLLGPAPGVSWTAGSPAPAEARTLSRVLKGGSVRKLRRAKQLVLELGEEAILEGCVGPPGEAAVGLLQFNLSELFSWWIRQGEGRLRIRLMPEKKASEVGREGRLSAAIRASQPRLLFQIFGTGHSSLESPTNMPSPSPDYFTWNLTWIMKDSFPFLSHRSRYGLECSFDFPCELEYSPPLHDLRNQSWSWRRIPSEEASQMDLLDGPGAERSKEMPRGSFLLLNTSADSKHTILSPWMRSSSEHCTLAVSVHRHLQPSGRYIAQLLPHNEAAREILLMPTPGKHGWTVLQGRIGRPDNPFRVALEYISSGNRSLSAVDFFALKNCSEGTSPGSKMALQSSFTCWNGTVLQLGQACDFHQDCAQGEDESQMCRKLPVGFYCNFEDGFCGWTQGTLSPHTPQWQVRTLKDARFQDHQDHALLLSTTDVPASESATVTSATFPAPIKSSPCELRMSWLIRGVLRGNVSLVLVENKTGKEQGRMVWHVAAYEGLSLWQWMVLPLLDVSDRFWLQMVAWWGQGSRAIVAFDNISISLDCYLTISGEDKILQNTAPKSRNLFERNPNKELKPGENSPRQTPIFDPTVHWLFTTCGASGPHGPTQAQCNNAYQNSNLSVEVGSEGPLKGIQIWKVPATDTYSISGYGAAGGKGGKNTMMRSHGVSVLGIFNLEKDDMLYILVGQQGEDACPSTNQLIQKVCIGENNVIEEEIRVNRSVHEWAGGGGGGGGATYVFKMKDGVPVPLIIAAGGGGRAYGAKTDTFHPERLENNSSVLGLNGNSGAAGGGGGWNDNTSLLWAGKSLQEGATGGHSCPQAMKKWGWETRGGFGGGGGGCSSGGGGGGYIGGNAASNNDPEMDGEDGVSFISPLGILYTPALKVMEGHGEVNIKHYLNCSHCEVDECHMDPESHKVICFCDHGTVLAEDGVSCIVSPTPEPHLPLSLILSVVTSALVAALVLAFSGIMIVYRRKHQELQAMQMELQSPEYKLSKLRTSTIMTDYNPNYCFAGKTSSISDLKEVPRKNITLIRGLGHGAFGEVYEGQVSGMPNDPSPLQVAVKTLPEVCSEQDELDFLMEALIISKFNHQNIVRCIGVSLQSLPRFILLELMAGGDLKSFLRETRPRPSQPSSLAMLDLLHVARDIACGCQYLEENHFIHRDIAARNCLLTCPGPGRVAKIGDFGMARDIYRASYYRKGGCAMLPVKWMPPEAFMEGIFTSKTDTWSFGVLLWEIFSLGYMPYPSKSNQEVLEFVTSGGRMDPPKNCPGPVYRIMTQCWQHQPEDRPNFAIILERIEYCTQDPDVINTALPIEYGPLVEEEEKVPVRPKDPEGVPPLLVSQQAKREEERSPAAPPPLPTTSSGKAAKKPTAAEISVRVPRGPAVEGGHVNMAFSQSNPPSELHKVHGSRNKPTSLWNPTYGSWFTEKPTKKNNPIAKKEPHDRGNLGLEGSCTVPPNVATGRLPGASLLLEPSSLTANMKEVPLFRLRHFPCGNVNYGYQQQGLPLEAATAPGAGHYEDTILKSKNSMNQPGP

SMILES	IC50 (ALK; [1]) [nM]	IC50 (JAK2; [2]) [nM]	IC50 (ALK; ALK Kinase Inhibition) [nM]	IC50 (JAK2; JAK2 Kinase Inhibition) [nM]
COc1cc(N(C)C(=O)CN2CCN(C)CC2)ccc1Nc1ncc2ccc(-c3ccccc3N(C)S(C)(=O)=O)n2n1 [Example 471, N-(4-{7-[2-(Methanesulfonyl-methyl-amino)-phenyl]-pyrrolo[2,1-f][1,2,4]triazin-2-ylamino}-3-methoxy-phenyl)-N-methyl-2-(4-methyl-piperazin-1-yl)-acetamide]	100 to 1000	1000 to 10000	–	–
COc1ccc(Cl)cc1-c1ccc2cnc(Nc3ccc(C(=O)N4CCN(C)CC4)cc3)nn12 [Example 319, {4-[7-(5-Chloro-2-methoxy-phenyl)-pyrrolo[2,1-f][1,2,4]triazin-2-ylamino]-phenyl}-(4-methyl-piperazin-1-yl)-methanone]	–	–	100 to 1000	< 100
COc1cc(N2CCC(N3CCOCC3)CC2)ccc1Nc1ncc2ccc(-c3cccc(OC)c3OC)n2n1 [Example 1465, [7-(2,3-Dimethoxy-phenyl)-pyrrolo[2,1-f][1,2,4]triazin-2-yl]-[2-methoxy-4-(4-morpholin-4-yl-piperidin-1-yl)-phenyl]-amine]	–	–	< 100	< 100
COc1cc([C@@H]2CCN(CC(N)=O)C[C@@H]2O)ccc1Nc1ncc2ccc(-c3ccccc3N(C)S(C)(=O)=O)n2n1 (racemic) [Example 842, (±)-2-[(3R,4S)-3-Hydroxy-4-(4-{7-[2-(methanesulfonyl-methyl-amino)-phenyl]-pyrrolo[2,1-f][1,2,4]triazin-2-ylamino}-3-methoxy-phenyl)-piperidin-1-yl]-acetamide]	< 100	100 to 1000	–	–
CN1CCC(c2ccc(Nc3ncc4ccc(-c5cccc(S(=O)(=O)NC6CC6)c5)n4n3)cc2)CC1 [Example 906, N-Cyclopropyl-3-{2-[4-(1-methyl-piperidin-4-yl)-phenylamino]-pyrrolo[2,1-f][1,2,4]triazin-7-yl}-benzenesulfonamide]	< 100	< 100	–	–
COc1cc(N2CCC(N3CCC(F)(F)CC3)CC2)ccc1Nc1ncc2ccc(-c3ccccc3OC)n2n1 [Example 1475, [4-(4,4-Difluoro-[1,4′]bipiperidinyl-1′-yl)-2-methoxy-phenyl]-[7-(2-methoxy-phenyl)-pyrrolo[2,1-f][1,2,4]triazin-2-yl]-amine]	–	–	< 100	100 to 1000
COc1cccc(Nc2ncc3ccc(-c4cccc(Cl)c4)n3n2)c1 [Example 146, [7-(3-Chloro-phenyl)-pyrrolo[2,1-f][1,2,4]triazin-2-yl]-(3-methoxy-phenyl)-amine]	–	–	> 10000	< 100
O=C(c1ccccc1)c1ccc2cnc(Nc3ccc(N4CCOCC4)cc3)nn12 [Example 72, [2-(4-Morpholin-4-yl-phenylamino)-pyrrolo[2,1-f][1,2,4]triazin-7-yl]-phenyl-methanone]	–	–	1000 to 10000	< 100
COc1ccc(-c2ccc3cnc(Nc4ccc(C5CCN(CC(N)=O)CC5)cc4)nn23)c(OC)n1 [Example 682, 2-(4-{4-[7-(2,6-Dimethoxy-pyridin-3-yl)-pyrrolo[2,1-f][1,2,4]triazin-2-ylamino]-phenyl}-piperidin-1-yl)-acetamide]	< 100	< 100	–	–
C[C@H](O)CN1CCN(c2cc(F)c(Nc3ncc4ccc(-c5ccccc5N(C)S(C)(=O)=O)n4n3)cc2F)CC1 [Example 1482, N-[2-(2-{2,5-Difluoro-4-[4-((S)-2-hydroxy-propyl)-piperazin-1-yl]-phenylamino}-pyrrolo[2,1-f][1,2,4]triazin-7-yl)-phenyl]-N-methyl-methanesulfonamide]	–	–	100 to 1000	< 100
CN(c1ccccc1-c1ccc2cnc(Nc3ccc(N4CCC(N5CCOCC5)CC4)cc3)nn12)S(C)(=O)=O [Example 1456, N-Methyl-N-(2-{2-[4-(4-morpholin-4-yl-piperidin-1-yl)-phenylamino]-pyrrolo[2,1-f][1,2,4]triazin-7-yl}-phenyl)-methanesulfonamide]	–	–	< 100	< 100
CN(c1ccccc1-c1ccc2cnc(Nc3ccc(=O)[nH]c3)nn12)S(C)(=O)=O [Example 596, N-Methyl-N-{2-[2-(6-oxo-1,6-dihydro-pyridin-3-ylamino)-pyrrolo[2,1-f][1,2,4]triazin-7-yl]-phenyl}-methanesulfonamide]	1000 to 10000	< 100	–	–

Second part, the compound after the results:

IC50 (ALK; [1]) [nM]	IC50 (JAK2; [2]) [nM]	IC50 (ALK; ALK Kinase Inhibition) [nM]	IC50 (JAK2; JAK2 Kinase Inhibition) [nM]	SMILES
–	–	100 to 1000	< 100	COc1cc(Nc2ncc3ccc(-c4cccc(Cl)c4)n3n2)ccc1N1CCOCC1 [Example 65, [7-(3-Chloro-phenyl)-pyrrolo[2,1-f][1,2,4]triazin-2-yl]-(3-methoxy-4-morpholin-4-yl-phenyl)-amine]
< 100	1000 to 10000	–	–	CCN1CC=C(c2ccc(Nc3ncc4ccc(-c5ccccc5N(C)S(C)(=O)=O)n4n3)c(OC)c2)CC1 [Example 744, N-(2-{2-[4-(1-Ethyl-1,2,3,6-tetrahydro-pyridin-4-yl)-2-methoxy-phenylamino]-pyrrolo[2,1-f][1,2,4]triazin-7-yl}-phenyl)-N-methyl-methanesulfonamide]
–	–	< 100	< 100	CN1CCN(C(=O)C2CCN(c3ccc(Nc4ncc5ccc(-c6ccccc6N(C)S(C)(=O)=O)n5n4)cc3)CC2)CC1 [Example 448, N-Methyl-N-[2-(2-{4-[4-(4-methyl-piperazine-1-carbonyl)-piperidin-1-yl]-phenylamino}-pyrrolo[2,1-f][1,2,4]triazin-7-yl)-phenyl]-methanesulfonamide]
–	–	100 to 1000	< 100	O=C(c1cccc(Nc2ncc3ccc(-c4cccc(Cl)c4)n3n2)c1)N1CCOCC1 [Example 329, {3-[7-(3-Chloro-phenyl)-pyrrolo[2,1-f][1,2,4]triazin-2-ylamino]-phenyl}-morpholin-4-yl-methanone]
–	–	1000 to 10000	< 100	COc1ccc(-c2ccc3cnc(Nc4ccc(C(=O)N5CCN(C)CC5)cc4)nn23)cn1 [Example 1420, {4-[7-(6-Methoxy-pyridin-3-yl)-pyrrolo[2,1-f][1,2,4]triazin-2-ylamino]-phenyl}-(4-methyl-piperazin-1-yl)-methanone]
< 100	100 to 1000	–	–	COc1cc(CCN2CCN(C)CC2)ccc1Nc1ncc2ccc(-c3ccccc3N(C)S(C)(=O)=O)n2n1 [Example 491, N-[2-(2-{2-Methoxy-4-[2-(4-methyl-piperazin-1-yl)-ethyl]-phenylamino}-pyrrolo[2,1-f][1,2,4]triazin-7-yl)-phenyl]-N-methyl-methanesulfonamide]
–	–	1000 to 10000	< 100	CN1CCN(c2ccc(Nc3ncc4c(Br)cc(Br)n4n3)cc2)CC1 [Example 84, (5,7-Dibromo-pyrrolo[2,1-f][1,2,4]triazin-2-yl)-[4-(4-methyl-piperazin-1-yl)-phenyl]-amine]
< 100	< 100	–	–	CN1CCN(CC2CCN(c3ccc(Nc4ncc5ccc(-c6cccc(S(=O)(=O)NC(C)(C)C)c6)n5n4)cc3)CC2)CC1 [Example 589, N-tert-Butyl-3-(2-{4-[4-(4-methyl-piperazin-1-ylmethyl)-piperidin-1-yl]-phenylamino}-pyrrolo[2,1-f][1,2,4]triazin-7-yl)-benzenesulfonamide]
< 100	100 to 1000	–	–	COc1cc(C2CCN(CC(N)=O)CC2)ccc1Nc1ncc2ccc(-c3ccccc3N(C)S(C)(=O)=O)n2n1 [Example 812, 2-[4-(4-{7-[2-(Methanesulfonyl-methyl-amino)-phenyl]-pyrrolo[2,1-f][1,2,4]triazin-2-ylamino}-3-methoxy-phenyl)-piperidin-1-yl]-acetamide]
–	–	100 to 1000	< 100	C[C@@H](O)CN1CCN(c2ccc(Nc3ncc4ccc(-c5cccc(Cl)c5)n4n3)cc2)CC1 [Example 208, (R)-1-(4-{4-[7-(3-Chloro-phenyl)-pyrrolo[2,1-f][1,2,4]triazin-2-ylamino]-phenyl}-piperazin-1-yl)-propan-2-ol]
–	–	> 10000	< 100	c1cc2cnc(Nc3ccc(N4CCOCC4)cc3)nn2c1 [Example 50, (4-Morpholin-4-yl-phenyl)-pyrrolo[2,1-f][1,2,4]triazin-2-yl-amine]
100 to 1000	< 100	–	–	COc1ccc(-c2ccc3cnc(Nc4cncc(C(N)=O)c4)nn23)cn1 [Example 667, 5-[7-(6-Methoxy-pyridin-3-yl)-pyrrolo[2,1-f][1,2,4]triazin-2-ylamino]-nicotinamide]
–	–	100 to 1000	< 100	C[C@H](O)CN1CCN(c2cc([S@@+](C)[O-])c(Nc3ncc4ccc(-c5ccccc5N(C)S(C)(=O)=O)n4n3)cc2F)CC1 [Example 1485, (R,S)—N-[2-(2-{5-Fluoro-4-[4-((S)-2-hydroxy-propyl)-piperazin-1-yl]-2-methanesulfinyl-phenylamino}-pyrrolo[2,1-f][1,2,4]triazin-7-yl)-phenyl]-N-methyl-methanesulfonamide]
–	–	100 to 1000	< 100	CNS(=O)(=O)c1cccc(-c2ccc3cnc(Nc4ccc(N5CCN(C)CC5)cc4)nn23)c1 [Example 366, N-Methyl-3-{2-[4-(4-methyl-piperazin-1-yl)-phenylamino]-pyrrolo[2,1-f][1,2,4]triazin-7-yl}-benzenesulfonamide]
< 100	< 100	–	–	CN(c1ncccc1-c1ccc2cnc(Nc3ccc(C4CCN(CC(N)=O)CC4)cc3)nn12)S(C)(=O)=O [Example 1258, 2-[4-(4-{7-[2-(Methanesulfonyl-methyl-amino)-pyridin-3-yl]-pyrrolo[2,1-f][1,2,4]triazin-2-ylamino}-phenyl)-piperidin-1-yl]-acetamide]

— patent US8471005B2 (Cephalon, Inc., priority 2008, dated 2013)
